Source: patent publication US20030228308A1, “Isolated peptides which bind to HLA-Cw6 molecules and uses thereof” (priority 2002, published 2003)

How the values were obtained:
[1] = test system: autologous EBV-B cells; experiment: 51Cr release lysis of peptide-incubated autologous EBV-B cells by CTL clone; type: cell-based, human; conditions: effector:target 10:1, chromium release after 4 hours; for lysis (chromium release): 1 μg/ml of peptide, 15 minutes
Procedure: A set of 16 amino acid long, MAGE-1 derived peptides were prepared, using standard solid phase methodologies.
The peptides, which overlapped by 12 residues and covered the entire MAGE-1 amino acid sequence, were incubated with autologous EBV-B cells that had been labelled with Na(^51Cr)O4. The cells were incubated for 15 minutes in the presence of 1 μg/ml of peptide, and then tested for lysis with the T cells, at effector:target ratios of 10:1. Chromium release was measured after 4 hours.
It corresponds to amino acids 230-238 of MAGE-1. The shorter peptide was tested, in the same manner as the longer ones.

[2] = test system: EBV-B cells; experiment: TNF production by CTL co-cultured with fixed EBV-B cells pulsed with the shorter peptide; type: cell-based, human; conditions: PFA-fixed EBV-B cells pulsed with peptide; overnight co-culture with 5,000 CTLs; WEHI 164 clone 13 readout
Procedure: A MAGE-1 expressing tumor cell line, MZ2-MEL.43 was obtained from a patient who tested positive for HLA-Cw6 expression. These cells either were, or were not contacted with gamma interferon (100 U/ml), 48 hours before lysis studies. EBV-B cells were also used. These cells naturally produce TNF. They were fixed with PFA (1% in PBS) for 10 minutes at room temperature, washed twice with Hank's medium, and either pulsed or not with the shorter peptide.
Stimulator cells (2×10^4) were distributed in flat bottom microwells, and cocultured with 5,000 CTLs, in a total volume of 150 μl of complete IMDM, supplemented with 25 U/ml of IL-2.
TNF production was measured, following overnight co-culture, by testing for toxicity of supernatant on TNF sensitive, WEHI 164 clone 13 cells.

Sequence | lysis (chromium release) [1] | EC50 ([1]; read-out: peptide concentration giving half maximal lysis) [nM] | TNF production by CTL [2]
DGREHSAYGEPRKLLT (H. sapiens) [SEQ ID NO:1, amino acids 225-240 of MAGE-1] | positive | – | –
HSAYGEPRKLLTQDLV (H. sapiens) [SEQ ID NO:2, amino acids 229-244 of MAGE-1] | positive | – | –
SAYGEPRKL | – | ~6 | did stimulate TNF production
